Marks after values point to notes of the source that are not given here.
Legend:
HepG2 cells [1] = experiment: MTT cytotoxicity assay on HepG2 cells; type: cell-based; conditions: Homo sapiens; for cytotoxicity at 100 ppm: 48 h, 100 p.p.m (μg/mL), read-out: % Death Rate at 100 p.p.m (μg/mL) HepG2; for IC50: HepG2, 48 h
Method: (§1) MTT-based cell viability assay was carried out to evaluate the antiproliferation potential of the target compounds on HCC cell lines (HepG2 and Huh7). The half maximal inhibitory concentration (IC50) values were calculated against DMSO non-treated HepG2 cells (negative control) and Dox-treated HepG2 cells (positive control). The assay was conducted using 3-(4, 5-di-MethylThiazol-2-yl)-2,5-diphenyl Tetrazolium bromide (MTT) to test cell viability, according to the method described by Mosmann with minor changes. The yellow MTT is reduced in the viable cells to purple formazan. The insoluble formazan is solubilized by DMSO to colored solution measured spectrophotometrically. Briefly, cells were seeded in a 96-well plate at density of 1 × 10^4 cells/well for 24 h in 5% CO2 incubator at 37 °C to allow their adherence. […] After incubation, 20 μL of a 5 mg/mL MTT solution were mixed with the contents of each well, and the plate was incubated for another 4 h. Then, the medium was suctioned, and the wells were washed with PBS. After 2 h of drying, 200 μL of DMSO was added to each well. The plate was set on a shaker to dissolve the formazan crystals. Then, the absorbance was measured spectrophotometrically at 570 nm with a reference wavelength of 630 nm using ELX800 UV universal microplate reader (BioTek Instruments Inc., VT, Santa Clara, CA, USA).
(§2) All experiment conditions were tested in three replicates. The % cell viability was calculated from the following equation: (mean absorbance of treated sample/mean absorbance of negative control sample) × 100. The % death rate = 100 -% cell viability, and the inhibitory concentration of 50% (IC50) was measured from the exponential curve of viability against concentration (dose–response curve).

mice = experiment: In vivo acute (14-day) oral toxicity study; conditions: for S.ALT / S.AST / S.Creatinine / S.D.Bilirubin / S.T.Bilirubin / S.Urea: 14 days after single dose, compounds 250 mg/kg oral, doxorubicin 15 mg/kg I.P; for Survival over the treatment period (14 days) / Physical or abnormal changes (body weight, skin, fur, eyes, behavior, overall appearance): single acute oral dose of 250 mg/kg; for Physical or abnormal changes (body weight, skin, fur, eyes, behavior, overall appearance): 14 days
From the text: GPower 3.0.10 software was used to estimate the sample size needed for the experiment and the number of mice per group but, according to the Organization for Economic Cooperation and Development (OECD) Test Guidelines No. 407 (OECD, 2008 and updated 2017) and under the International Academy of Science’s Guide for the Care and Use of Laboratory Animals, as well as the ARRIVE guidelines, to use the least number of mice per group for the acute single dose oral toxicity test.
Animals were divided randomly into nine groups (5 animals per group). Before the experiment, the body weight (BW) of all mice was recorded. All mice were made to fast for 24 h and treated once (day zero) then carefully monitored for 14 days.
Normal control group: mice received saline orally once;
Negative control group: mice received vehicle (DMSO) orally once;
Positive control group: mice were injected with Dox (15 mg/kg BW, i.p.) once.
Isatin-sulfonamide-derivative-compound-treated groups (2a, 3a, 3d and 4b, 4c and 4d) of mice received 250 mg/kg BW of each orally once.
The animals’ BWs were recorded at the end of the 14 days of observation. Blood samples were collected from the retro-orbital plexus and allowed to clot. Sera were prepared by centrifugation at 4000 rpm for 15 min and then kept frozen at − 80 °C for liver and kidney function tests (LFTs and KFTs). Thereafter, mice were deprived of food overnight, euthanized, and sacrificed by cervical dislocation. Liver and kidney tissues were collected, washed with ice-cold saline, and weighed. Excised weighed livers and kidneys were fixed in a suitable buffer for histological examination.
Liver and kidney tissues were fixed in 10% neutral buffered formaldehyde overnight and then embedded in paraffin, […] in serial grades of alcohols, cleared in xylene, and were subjected to […], where 4 μm thick tissue sections were cut by rotatory microtome. Tissue sections were stained with hematoxylin and eosin (H and E) for histological examination using full HD light microscopic imaging system (Leica Microsystems GmbH, Wetzlar, Germany). Standard procedures for sample fixation and staining were done as previously described.

[2] = In vitro safety/cell viability MTT assay on normal RPE1 cells; type: cell-based, human; conditions: human, RPE1 cells (noncancerous), normal RPE1 cells, MTT
Huh7 cells = experiment: MTT cytotoxicity assay on Huh7 cells; type: cell-based, human; conditions: for IC50: Homo sapiens, Huh-7, 48 h
Method: as §1, §2

HepG2 cells [3] = experiment: Annexin V/FITC-PI apoptosis assay; type: cell-based, human; conditions: HepG2, IC50 of the compound, 24 h (method says 48 h)
Method: Annexin V/PI double staining kit (eBiosciencesDx) was used to detect apoptotic activity of the selected isatin sulfonamide derivatives. The Annexin V corresponding signal provides a very sensitive marker for cellular apoptosis, while PI was used to detect necrotic or late apoptotic cells, identified by the loss of plasma integrity and loss of nuclear membranes.
Briefly, 1 × 10^5 cells/mL of HepG2 cells were seeded into a 6-well plate and incubated at 37 °C, 5% CO2, overnight. […] After time elapsed, trypsinization of cells was carried out. Washing was done by PBS once, followed by fixation using 70% ethanol. Fixed cells were stored at 4 °C for 2 h, then centrifuged at 500× g for 5 min. Again, cells were washed with PBS prior to staining. An amount of 200 μL of the staining solution (annexin V- fluorescein 5-isothiocyanate (FITC) and PI in binding buffer (10 mM HEPES, 140 mM NaCl, and 2.5 mM CaCl2 at pH 7.4)) were added to the cell suspension and incubated at 37 °C for 20 to 30 min in dark and analyzed with a fluorescence-activated cell sorter (FACS) (BD FACSCalibur, BD Biosciences, California, USA). Data were analyzed using ModFit LT v2.0 (Verity Software House, Topsham, Maine, USA).
These plots were divided into four regions corresponding to: • (1) Viable cells, which are negative to both probes (PI/FITC −/−), • (2) Apoptotic cells, which are PI negative and Annexin positive (PI/FITC −/+), • (3) Late apoptotic cells, which are both PI and Annexin positive (PI/FITC +/+), • (4) Necrotic cells, which are PI positive and Annexin negative (PI/FITC+/−).

In the case of `CCOC(=O)/C(C#N)=C1\C(=O)Nc2ccc(S(=O)(=O)N3CCCCC3)cc21` [Compound 2a], the cytotoxicity at 100 ppm (HepG2 cells [1]) is reported as 81.5%, the IC50 (HepG2 cells [1]) is reported as 54.6 ± 2 µM and the S.ALT (mice) is reported as 28.42 ± 0.27 ^^ U/L. For the same molecule, the S.AST (mice) was 37.11 ± 0.35 ^^ U/L, the S.Creatinine (mice) was 0.59 ± 0.04 ^^ mg/dL and the S.D.Bilirubin (mice) was 0.16 ± 0.003 ^^ mg/dL. For the same molecule, the S.T.Bilirubin (mice) was 0.65 ± 0.018 ^^ mg/dL, the S.Urea (mice) was 52.24 ± 0.65 ^^ mg/dL and the “Survival over the treatment period (14 days)” value (mice) was “survived”. For the same molecule, the “Physical or abnormal changes (body weight, skin, fur, eyes, behavior, overall appearance)” value (“Physical or abnormal changes” for short) (mice) was “No physical or abnormal changes were observed”, the CC50 at 48 h [2] was 40.3 ± 1.61 µM and the viability at 48 h, 100 p.p.m (μg/mL) [2] was 4.4%. The “% Death Rate at 100 p.p.m (μg/mL) Huh7” value (Huh7 cells; 48 h, 100 p.p.m (μg/mL)) was 100 * % and the IC50 (Huh7 cells) was 40 ± 3.8 µM.

`N#C/C(C(N)=O)=C1/C(=O)Nc2ccc(S(=O)(=O)N3CCCCC3)cc21` [Compound 2b] gave a cytotoxicity at 100 ppm (HepG2 cells [1]) of 10.2%, an IC50 (HepG2 cells [1]) of over 100 µM and an IC50 (Huh7 cells) of over 100 µM.

`Nc1cccc(C(=O)CC2(O)C(=O)Nc3ccc(S(=O)(=O)N4CCCCC4)cc32)c1` (centres unmarked) [Compound 3b] showed a cytotoxicity at 100 ppm (HepG2 cells [1]) of 1.2%, an IC50 (HepG2 cells [1]) of over 100 µM and an IC50 (Huh7 cells) of over 100 µM.

In the case of `Nc1ccc(C(=O)CC2(O)C(=O)Nc3ccc(S(=O)(=O)N4CCCCC4)cc32)cc1` (centres unmarked) [Compound 3c], the cytotoxicity at 100 ppm (HepG2 cells [1]) is reported as 11.5%, the IC50 (HepG2 cells [1]) is reported as over 100 µM and the “%Cell Death Late Apoptosis” value (HepG2 cells [3]) is reported as 18.08%. The IC50 (Huh7 cells) was over 100 µM.

In the case of `O=C(CC1(O)C(=O)Nc2ccc(S(=O)(=O)N3CCCCC3)cc21)c1ccc(O)cc1` (centres unmarked) [Compound 3d], the cytotoxicity at 100 ppm (HepG2 cells [1]) is reported as 19.5%, the IC50 (HepG2 cells [1]) is reported as over 100 µM and the IC50 (Huh7 cells) is reported as over 100 µM.

With `Cc1ccc(C(=O)/C=C2\C(=O)Nc3ccc(S(=O)(=O)N4CCCCC4)cc32)cc1` [Compound 4a] the cytotoxicity at 100 ppm (HepG2 cells [1]) was 100%, the IC50 (HepG2 cells [1]) was 12 ± 0.4 µM and the S.ALT (mice) was 28.14 ± 0.56 ^^ U/L. The S.AST (mice) was 36.51 ± 0.15 ^^ U/L, the S.Creatinine (mice) was 0.70 ± 0.02 ^^ mg/dL and the S.D.Bilirubin (mice) was 0.17 ± 0.004 ^^ mg/dL. For the same molecule, the S.T.Bilirubin (mice) was 0.72 ± 0.019 ^^ mg/dL, the S.Urea (mice) was 55.10 ± 2.96 ^^ mg/dL and the “Survival over the treatment period (14 days)” value (mice) was “survived”. For the same molecule, the “Physical or abnormal changes” value (mice) was “No physical or abnormal changes were observed”, the CC50 at 48 h [2] was 21.9 ± 1.15 µM and the viability at 48 h, 100 p.p.m (μg/mL) [2] was 0%. It also gave an IC50 (Huh7 cells) of over 100 µM.

With `O=C1Nc2ccc(S(=O)(=O)N3CCCCC3)cc2/C1=C/C(=O)c1ccc(O)cc1` [Compound 4d] the cytotoxicity at 100 ppm (HepG2 cells [1]) was 100%, the IC50 (HepG2 cells [1]) was 13.3 ± 0.75 µM and the S.ALT (mice) was 30.14 ± 0.93 ^^ U/L. The S.AST (mice) was 38.72 ± 1.37 ^#,^ U/L, the S.Creatinine (mice) was 0.85 ± 0.03 ^^ mg/dL and the S.D.Bilirubin (mice) was 0.18 ± 0.004 ^^ mg/dL. For the same molecule, the S.T.Bilirubin (mice) was 0.69 ± 0.016 ^^ mg/dL, the S.Urea (mice) was 48.18 ± 0.53 ^^ mg/dL and the “Survival over the treatment period (14 days)” value (mice) was “survived”. For the same molecule, the “Physical or abnormal changes” value (mice) was “No physical or abnormal changes were observed”, the CC50 at 48 h [2] was 11.9 ± 0.7 µM and the viability at 48 h, 100 p.p.m (μg/mL) [2] was 0%. The IC50 (Huh7 cells) was 18.8 ± 0.8 µM.
